Series [1] in a line: Oxidation state specificity of the ratiometric response. How it is done: (A) Changes in corrected emission spectra of FCP-1 (5 μM) in aqueous buffer solution. […] (B) Corrected emission spectra of FCP-1 measured at various concentrations. […] (D) Changes in F526/F576 ratio of FCP-1 (5 μM) towards various biologically relevant metal ions, as well as cobalt(II)-containing vitamin B12. Black bars represent the ratiometric emission response observed upon addition of competing metal ions (1 mM for Na^+, K^+, Mg^2+ and Ca^2+, and 10 μM for all the other d-block metal ions as well vitamin B12) after 15 min. Red bars represent the ratiometric emission response upon subsequent addition of 10 μM of Cu(I) after 15 min. (E) Emission spectra and (F) F526/F576 emission ratio of FCP-1 (5 μM) with addition of Cu(II) (10 μM), Cu(II) (10 μM)+GSH (2 mM), or Cu(I) (10 μM)+GSH (2 mM) after 15 min. All spectra were acquired in aqueous buffer (PBS with 2 mM GSH and 40 vol % PEG-400) with λex=458 nm.
UV-vis absorption and emission measurements. FCP-1 stock solution in DMSO (5 mM) was prepared, aliquoted and stored at […]. For each spectroscopic measurement, a fresh aliquot was diluted to 500 μM by DMSO and further diluted with PBS containing 2 mM GSH/PEG-400 mixture (3:2, v/v) to prepare the sensing solution with 5 μM of FCP-1. […] Photoluminescence quantum yield (PLQY) was determined using fluorescein in 0.1 M NaOH solution (0.95; λex=496 nm). […]

Series [2] can be described thus: UV-vis absorption and emission measurements in aqueous buffer. The note with it: for molar extinction coefficient: PBS, glutathione 2 mM, PEG-400 40% v/v. It is filed as physicochemical. How it is done:
UV-vis absorption and emission measurements. FCP-1 stock solution in DMSO (5 mM) was prepared, aliquoted and stored at […]. For each spectroscopic measurement, a fresh aliquot was diluted to 500 μM by DMSO and further diluted with PBS containing 2 mM GSH/PEG-400 mixture (3:2, v/v) to prepare the sensing solution with 5 μM of FCP-1. The sensing solution was pre-incubated in a water bath at 37° C., and then [Cu(CH3CN)](PF6) in MeCN or other metal ions in H2O was added. The solution mixture was kept at 37° C. and taken out for UV-vis absorption or emission spectroscopic measurements in quartz cuvette at predetermined time intervals. Emission spectra were corrected using coumarin 153 as secondary emission standard (4). Photoluminescence quantum yield (PLQY) was determined using fluorescein in 0.1 M NaOH solution (0.95; λex=496 nm). FRET efficiency from the fluorescein moiety to rhodamine moiety of FCP-1 was estimated by [1−(PLQY of FCP-1/PLQY of FL-TPA)].
FCP-1 in PBS buffer containing glutathione (2 mM) and PEG-400 (40%, v/v) was evaluated. […] The first two absorption maxima corresponded to the absorption of the fluorescein moiety, as similar absorption maxima at 460 and 489 nm were found in the absorption spectra of FL-TPA (FIG. 4), whereas the lowest energy absorption at 552 nm originated from the rhodamine moiety (FIG. 4). […] Together with the significant contribution of the lower-energy fluorescence from the excitation at 450-500 nm, which is in the region of FL-TPA absorption (FIG. 6), the data support the occurrence of FRET from the fluorescein donor to the rhodamine acceptor. Using FL-TPA as a reference FRET donor compound (FIG. 7) with assumption that quenching of donor fluorescence originated only from the FRET process, the FRET efficiency in the FCP-1 cassette is estimated to be 84%.

Each structure is given as a SMILES string. “And” between values parts separate entries of the source, which are not always exact repeats. Equal entries are not always repeated.

For `CC[N+](CC)=c1ccc2c(-c3ccccc3C(=O)O)c3ccc(N4CCN(Cc5cccc(CN(Cc6ccccn6)Cc6cccc(COc7ccc8c(-c9ccccc9C(=O)OC)c9ccc(=O)cc-9oc8c7)n6)n5)CC4)cc3oc-2c1` [FCP-1], in series [1] (Cu(II) 10 μM + GSH 2 mM, compared with Cu(I) 10 μM + GSH 2 mM), the “emission spectra and F526/F576 ratio with Cu(II) and excess glutathione” value is “identical to that obtained by treating FCP-1 with Cu(I) and excess glutathione”. In addition, the “ratiometric response to Cu(II)” value in series [1] (Cu(II) 10 μM, 15 min) is on record as “does not respond ratiometrically”. This molecule also had an FRET efficiency in series [2] (FL-TPA as reference FRET donor, 1−(PLQY of FCP-1/PLQY of FL-TPA)) of 84%. In addition, the absorption maxima in series [2] (PBS buffer containing glutathione (2 mM) and PEG-400 (40%, v/v)) was 465 nm and 493 nm and 552 nm. The figures for the molar extinction coefficient in series [2] (at 465 nm), in series [2] (at 493 nm) and in series [2] (at 552 nm) were 20,000 M^−1 cm^−1, 22,100 M^−1 cm^−1 and 40,000 M^−1 cm^−1, respectively. For the same molecule, the emission wavelength in series [2] (photoexcitation at 458 nm) was 526 nm and 576 nm.

The record behind these values is patent US12241902B2, “Probes for detection of copper” (The Regents of the University of California, priority 2019, dated 2025).
